Results from patent US20100105610A1, “Methods of Inhibiting Tumor Cell Aggressiveness Using the Microenvironment of Human Embryonic Stem Cells” (CHILDREN'S MEMORIAL HOSPITAL, priority 2006, published 2010).

Assays:
[1] = test system: C8161 human cutaneous melanoma cells; assay: In vivo tumor formation, C8161 cells injected subcutaneously into nude mice; design: species or system mouse; conditions: 250,000 Morpholino-treated C8161 cells injected, vs control
Description: A microenvironment of human embryonic stem cells (H9 CMTX) was prepared as described above. C8161 human cutaneous melanoma cells were exposed to the H9 CMTX or Matrigel for 3 to 4 days prior to transplantation in a mouse model. Nude immunocompromised mice received an injection of the C8161 cells subcutaneously into the midscapular region (to mimic spontaneous metastatic dissemination found in human cancers). The animals were injected using a 25 or 27-gauge needle with 2.5×10^5 tumor cells/mouse in 0.05 ml RPMI media.
As a corollary to these findings, an orthotopic mouse model was used to examine the effect of Nodal inhibition on melanoma tumor formation. For the experimental tumourigenesis model, 5 week old nude mice (Harlan, Madison, Wis.) were injected subcutaneously with 250,000 C8161 cells, treated with control or anti-Nodal Morpholinos, in 50 μL of complete RPMI. Tumor measurements were taken on days 3, 7, 14 and 17 post-injection, and mice were sacrificed on day 17. For the orthotopic mouse tumor formation studies, statistical significance was determined using the Kruskal-Wallis One Way Analysis of Variance on Ranks, followed by Dunn's method. […]

[2] = test system: MDA-MB-231 breast carcinoma cells; assay: In vivo tumor formation, MDA-MB-231 cells injected into the mammary fat pad; design: species or system mouse; conditions: 500,000 Morpholino-treated MDA-MB-231 cells injected, vs control
Source text: The effects of the hESC microenvironment on the in vivo tumorigenicity of melanoma and breast carcinoma cells were examined using orthotopic mouse models. […] In order to further substantiate the role of Nodal in tumorigenicity, and to illuminate a potential mechanism for the tumor-suppressive properties of the hESC microenvironment, previously shown to diminish Nodal expression (FIG. 9), orthotopic mouse models were utilized to examine the effects of: (a) Ectopic Nodal expression on the tumorigenic potential of C81-61 cells (isogenetically matched non-tumorigenic variants of the metastatic C8161 melanoma cell line); and (b) Nodal inhibition on MDA-MB-231 breast carcinoma tumorigenicity. The control C81-61 melanoma cell line was unable to form palpable tumors when 500,000 cells were injected, and using gross observation and histology 5.5 weeks after inoculation, these tumor cells could not be detected at the site of injection. In contrast, 100% of C81-61 cells transfected with a Nodal expression vector formed palpable tumors within 3.5 weeks of injection (FIG. 13B).
5 week old mice were injected subcutaneously with 250,000 C8161 or 500,000 C81-61 human cutaneous melanoma cells in 50 μL of complete RPMI; or 500,000 MDA-MB-231 cells in 50 μL of complete RPMI were injected into the mammary fat pad of 8 week old mice. When tumors became palpable measurements were taken twice per week.

C8161 cells [3] = assay: Anchorage independent growth / soft agar colony formation, C8161; format: cell-based, human; conditions: C8161 cells, soft agar, after 2 weeks
Description: An in vitro colony forming assay was used to analyze colony-forming ability of poorly aggressive C81-61 cells, aggressive C8161 cells, C8161 cells treated with MONodal and C8161 cells treated with MONodal and rescued with recombinant Nodal (100 ng/mL). The assay was conducted using 50,000 cells suspended in 0.35% agarose in RPMI containing 10% serum, which were plated into 6-well dishes on 0.5% agar in the same medium. Colonies grew, and pictures were taken at day 7. After 2 weeks, colonies were stained with Crystal Violet and counted.
Clonogenicity of cells are assessed as previously described. Hamburger, A. W., and Salmon, S. E., 1977, Science 197:461-463. Each parameter is tested in triplicate for clone formation in soft agar. Briefly, […] are plated in 60 mm Petri dishes in complete medium placed over the soft agar. On specific days after the cells are plated, phase contrast images of the colonies are taken using a Zeiss Axiovert 25 with an Hitachi HCV-20 color camera.
Anchorage independent growth assays were conducted as previously described. Topczewska et al., 2006, Nat. Med. 12: 925-932.

C8161 melanoma cells = assay: In vivo tumor cell proliferation-to-apoptosis ratio (Ki67 / TUNEL), C8161 tumors; conditions: C8161 cells treated prior to injection into mouse
Source text: (A) In vivo tumor formation in a mouse injected with MDA-MB-231 cells pre-exposed for 3 days to either a control matrix (Matrigel) or a matrix conditioned by hESCs (H9 CMTX) (n=10) (B) C81-61 cells, transfected with either an empty vector or a Nodal expression construct (n=5), and (C) MDA-MB-231 cells treated with either MO^Control or MO^Nodal (n=10). […] (D) The ratio of tumor cell proliferation to apoptosis for C8161 and MDA-MB-231 derived tumors, determined by immunohistochemical staining for Ki67 and terminal deoxynucleotidyl transferase biotin-dUTP nick-end labeling (TUNEL). Prior to injection into a mouse, C8161 and MDA-MB-231 cells were cultured for 3 days on control or hESC conditioned (H9 CMTX) matrices, or treated with MO^Nodal to knock down Nodal expression. […] (E) Immunohistochemical analysis of Ki67 expression (red/brown) and TUNEL staining in orthotopic melanoma (C8161) and breast carcinoma (MDA-MB-231) tumors. […] Proliferation is indicated by Ki67 staining and apoptotic nuclei were detected with confocal microscopy as red staining localized to the nuclei of apoptotic C8161 or MDA-MB-231 cells. […]
In order to establish a mechanism by which exposure to the hESC microenvironment abrogates tumorigenicity, the effects of this treatment on the in vivo tumor cell proliferation-to-apoptosis ratio were analyzed. […]

C8161 cells [4] = assay: In vitro proliferation assay (cell count), C8161; format: cell-based, human; conditions: C8161, relative to MO Control; 4 days after plating 15,000 cells
MDA-MB-231 cells = assay: In vitro proliferation assay (cell count), MDA-MB-231; format: cell-based, human; conditions: MDA-MB-231, relative to MO Control; 4 days after plating 15,000 cells

MO^Nodal: antisense Morpholino to Nodal, 5′-AAGCAGCACCTCCAGCCCTTATATC-3′ (SEQ ID NO: 20) (all phosphorodiamidate morpholino (PMO); further chemistry not fully specified)
diminution of tumor incidence [1]: 30%
tumorigenicity [1]: significant reduction
tumorigenicity [2]: significant reduction
reduction of colony formation (C8161 cells [3]): 57%
ratio of proliferation to apoptosis (C8161 melanoma cells): decreased
in vitro cell proliferation (C8161 cells [4]): reduced proliferation
in vitro cell proliferation (MDA-MB-231 cells): reduced proliferation
